# Assay results reported in patent US10189791B2, “Pyridyl analogs of 1-(2-cyano-3,12-dioxooleana-1,9(11)dien-28-oyl) imidazole” (Trustees of Dartmouth College, priority 2014, dated 2019).
# Like-named read-outs stand apart in the source and are kept apart here.
# How the values were obtained:
# U937 leukemia cell line = assay: U937 monocytic differentiation assay (CD11b surface marker, flow cytometry); format: cell-based; conditions: for activity to induce differentiation of U937 cells (in words): 4 days
# Description: CDDO-Im 1 is a potent inducer of differentiation in U937 cells (Place, et al. (2003) Clin. Cancer Res. 9:2798-2806). Therefore, the activity of the CDDO-Im analogs was evaluated using the U937 leukemia cell line. CD11b (also known as Mac-1α or CR3 complement receptor) was used as a surface marker of monocytic differentiation, and its expression was measured by flow cytometry after 4 days of treatment with CDDO-Phenyl-Im 2, CDDO-3P-Im 3, CDDO-2P-Im 4, CDDO-4P-Im 5, CDDO-Im 1 (as positive control) or vehicle (DMSO). […] Indeed, the highest level of differentiation was obtained using 100 nM of CDDO-2P-Im (approximately a 4-fold induction of CD11b).
# [1] = tested on: RA W264.7 macrophage-like cells; assay: Inhibition of IFNγ-stimulated nitric oxide release (Griess reaction); format: cell-based; conditions: 10 ng/ml IFNγ, 24 hour exposure, read-out: IC50 (nM) Mean ± SE, NO production
# Description: Because oxidative and inflammatory stress contribute to carcinogenesis (Albini & Sporn (2007) Nature Rev. Cancer 7:139-147), it was determined whether the pyridine analogues could block de novo synthesis of inducible nitric oxide synthase (iNOS), a critical enzyme involved in the inflammatory response (Kroncke, et al. (1998) Clin. Exp. Immunol. 113:147-156; Zamora, et al. (2000) Mol. Med. 6:347-373). Nitric oxide release was determined in RA W264.7 macrophage-like cells, after stimulation with 10 ng/ml interferon-γ (IFNγ) and a 24 hour-exposure to each compound at 0.625, 1.3, 2.5, 5, 10 and 20 nM. NO release was measured by Griess reaction and compared to CDDO-Im, which is a potent suppressor of iNOS (Place, et al. (2003) Clin. Cancer Res. […]:2798-2806).
# [2] = Stability in human plasma at 37° C. (LC-MS); format: in vitro ADME; conditions: for percent of starting material remaining in plasma: after a 1-hour incubation; for stability in human plasma (in words): up to 6 hours
# Description: Since CDDO-Im is not stable in human plasma, the stability of the CDDO-Im analogs was determined. Compounds were incubated in human plasma at 37° C. for up to 6 hours. The compounds were extracted with acetonitrile at six different time points (0, 0.5, 1, 2, 4 and 6 hours), centrifuged, and the percent of starting material remaining in the supernatant was measured by liquid chromatography-mass spectrometry (LC-MS). […] The concentrations then decreased gradually over 6 hours. […] Unexpectedly, the CDDO-Im analogs are metabolized differently from CCDO-Im, as no traces of CDDO were detected with any of the other compounds at any time point. Instead, an oxidized derivative was detected on the chromatogram, in the form of an adduct on the molecule of +16 in MW (N-oxide).
# [3] = Tissue distribution after single gavage in C57BL/6 mice (LC-MS); format: in vivo; conditions: for bioavailability / drug levels in organs (in words): compared with CDDO-Im 1; for Compound Concentration Mean ± SE, Kidney / Compound Concentration Mean ± SE, Liver / Compound Concentration Mean ± SE, Lungs / Compound Concentration Mean ± SE, Pancreas / Compound Concentration Mean ± SE, Plasma / Compound Concentration Mean ± SE, Whole Blood: six hours after single gavage with 1 μmole
# Description: To determine concentrations of the CDDO-Im analogs in various organs, an in vivo evaluation was conducted in C57BL/6 mice. Six hours after a single gavage with 1 μmole of compound, the mice were sacrificed and the tissues were collected.
# HO-1 = assay: Induction of HO-1 mRNA in mouse liver, kidney and lung (real-time PCR); format: in vivo, mice; conditions: for HO-1 level relative to CDDO-Im / HO-1 mRNA fold induction compared to the vehicle control: liver; for HO-1 mRNA fold induction compared to the vehicle control: six hours after gavage with 1 μmole; for HO-1 induction (in words): kidney
# Description: (§1) FIG. 2A and FIG. 2B show the induction of cytoprotective enzyme expression in mouse liver, kidney and lung. CB57BL/6 mice were gavaged with 1 μmole of each triterpenoid. Six hours later, organs were harvested, RNA was extracted, and mRNA levels for HO-1 (FIG. 2A) and NQO1 (FIG. 2B) were quantified by real-time PCR analysis. Results are presented as the fold induction for each compound compared to the vehicle (DMSO) control. Data are presented as mean±SE of six mice per group.
# Synthetic triterpenoids such as CDDO-Im strongly activate the Nrf2/ARE pathway; Nrf2 is a transcription factor that regulates numerous cytoprotective and anti-inflammatory genes (Liby, et al. (2005) Cancer Res. 65:4789-98; Yates, et al. (2007) Mol. Cancer Therapeut. 6:154-62). Therefore, the ability of the new pyridine compounds to induce transcription of the Nrf2 target genes HO-1 and NQ01 in vivo was assessed. […] In the liver, CDDO-3P-Im and CDDO-2P-Im induced high levels of HO-1, which were about 3 times more elevated than with CDDO-Im (13.4- and 15.2-fold, respectively vs. 4.9-fold for CDDO-Im). […] The results obtained in lungs were, on the other hand, unexpected.
# U937 cells = assay: Apoptosis in U937 cells (annexin V staining); format: cell-based; conditions: U937 cells treated for 48 hours
# NQO1 = assay: Induction of NQO1 mRNA in mouse liver, kidney and lung (real-time PCR); format: in vivo, mice
# Description: as §1
# Because HO-1 is regulated by transcription factors in addition to Nrf2 (Alam, et al. (1999) J. Biol. Chem. 274:26071-8; Kensler, et al. (2007) Ann. Rev. Pharmacol. Toxicol. 47:89-116), induction of the prototypical Nrf2 target gene NQO1 was also examined.
# [4] = 30 nM, compared with CDDO-Im and CDDO-3P-Im
# [5] = six hours after gavage with 1 μmole
# [6] = six hours after gavage with 1 μmole, read-out: concentration in the pancreas
# [7] = 30 nM, 4 days of treatment, U937 cells
Compound,activity to induce differentiation of U937 cells (in words) (U937 leukemia cell line; [4]),activity to induce differentiation of U937 cells (in words) (U937 leukemia cell line; 100 nM),IC50 [1],percent of starting material remaining in plasma ([2]; 37° C.),stability in human plasma (in words) ([2]; 37° C.),bioavailability / drug levels in organs (in words) [3],"concentration in the liver [3, 5]","drug levels in the lungs [3, 5]","concentration at 6 h [3, 6]","Compound Concentration Mean ± SE, Kidney [3]","Compound Concentration Mean ± SE, Liver [3]","Compound Concentration Mean ± SE, Lungs [3]","Compound Concentration Mean ± SE, Pancreas [3]","Compound Concentration Mean ± SE, Plasma [3]","Compound Concentration Mean ± SE, Whole Blood [3]",HO-1 level relative to CDDO-Im (HO-1; six hours after gavage),HO-1 mRNA fold induction compared to the vehicle control (HO-1),induction of CD11b expression compared to the DMSO-treated cells (U937 leukemia cell line; [7]),cell death in the differentiation assay (U937 leukemia cell line; 100 nM),"annexin V staining, a marker of early apoptosis (U937 cells)",further results
CC1(C)CCC2(C(=O)n3cnc(-c4ccccn4)c3)CCC3(C)C(C(=O)C=C4C5(C)C=C(C#N)C(=O)C(C)(C)C5CCC43C)C2C1 (stereo not drawn) [CDDO-2P-Im 4],less active,enhanced the activity,5.8 ± 1.1 nM,more than 85%,the most stable analog,better than for CDDO-Im 1,12000 to 15000 nM,greater than 2.5 μM,3500 nM,3.70 ± 0.55 µmol/kg,14.9 ± 2.58 µmol/kg,2.63 ± 0.41 µmol/kg,3.55 ± 0.39 µmol/kg,0.52 ± 0.02 µmol/kg,0.53 ± 0.02 µmol/kg,about 3 times,15.2 fold,–,–,–,"induction of CD11b (U937 leukemia cell line; 100 nM, 4 days of treatment, U937 cells): ~4 fold; percent left in plasma ([2]; after 4 hours, 37° C.): more than 50%"
CC1(C)CCC2(C(=O)n3cnc(-c4cccnc4)c3)CCC3(C)C(C(=O)C=C4C5(C)C=C(C#N)C(=O)C(C)(C)C5CCC43C)C2C1 (stereo not drawn) [CDDO-3P-Im 3],–,–,4.3 nM,–,more stable than CDDO-Im,better than for CDDO-Im 1,–,greater than 2.5 μM,2500 nM,1.47 ± 0.24 µmol/kg,5.9 ± 0.57 µmol/kg,2.49 ± 0.44 µmol/kg,2.52 ± 0.24 µmol/kg,0.15 ± 0.04 µmol/kg,0.16 ± 0.02 µmol/kg,about 3 times,13.4 fold,~3 fold,induced cell death,increased annexin V staining,–
CC1(C)CCC2(C(=O)n3cnc(-c4ccncc4)c3)CCC3(C)C(C(=O)C=C4C5(C)C=C(C#N)C(=O)C(C)(C)C5CCC43C)C2C1 (stereo not drawn) [CDDO-4P-Im 5],less active,enhanced the activity,9 ± 0.6 nM,42%,more stable than CDDO-Im,–,–,–,–,0.35 ± 0.06 µmol/kg,2.8 ± 0.47 µmol/kg,0.17 ± 0.05 µmol/kg,0.30 ± 0.04 µmol/kg,0.03 ± 0.01 µmol/kg,0.04 ± 0.1 µmol/kg,–,–,–,–,–,"HO-1 induction (in words) (HO-1): less potent than CDDO-Im; HO-1 transcript level relative to CDDO-Im or any of the other compounds (HO-1; lungs, six hours after gavage): about 3 times"
"CC1(C)CCC2(C(=O)n3ccnc3)CCC3(C)C(C(=O)C=C4C5(C)C=C(C#N)C(=O)C(C)(C)C5CCC43C)C2C1 (stereo not drawn) [CDDO-Im 1, 1-(2-cyano-3,12-dioxooleana-1,9(11)-dien-28-oyl) imidazole, reference compound]",–,–,–,–,rapidly metabolized,–,–,–,–,0.24 ± 0.08 µmol/kg,1.7 ± 0.32 µmol/kg,0.19 ± 0.05 µmol/kg,0.31 ± 0.09 µmol/kg,0.06 ± 0.02 µmol/kg,0.03 ± 0.01 µmol/kg,–,–,~3 fold,induced cell death,increased annexin V staining,"IC50 ([1]; Mus musculus, RAW264.7): 2 nM; transformation product in human plasma (in words) ([2]; LC-MS, all time points): essentially converted to its parent molecule; percent of compound lost in human plasma ([2]; within 30 minutes, 37° C.): more than 88%; percent of compound lost in human plasma ([2]; within the next 5 hours (6 hour incubation), 37° C.): 98%; concentration at 6 h ([3]; C57BL/6, mouse, liver, oral, six hours after gavage with 1 μmole, read-out: concentration in the liver): 1700 nM; concentration at 6 h ([3]; C57BL/6, mouse, lung, oral, six hours after gavage with 1 μmole, read-out: drug levels in the lungs): 200 nM; concentration at 6 h ([3]; C57BL/6, mouse, pancreas, oral, six hours after gavage with 1 μmole, read-out: concentration in the pancreas): ~300 nM; rank of NQO1 mRNA induction (in words) (NQO1; liver and kidney): the most potent compound"
CC1(C)CCC2(C(=O)n3cnc(-c4ccccc4)c3)CCC3(C)C(C(=O)C=C4C5(C)C=C(C#N)C(=O)C(C)(C)C5CCC43C)C2C1 (stereo not drawn) [CDDO-Phenyl-Im 2],less active,–,14.7 nM,–,more stable than CDDO-Im,better than for CDDO-Im 1,12000 to 15000 nM,–,2000 nM,5.79 ± 0.25 µmol/kg,12.2 ± 1.27 µmol/kg,1.28 ± 0.17 µmol/kg,1.97 ± 0.19 µmol/kg,0.12 ± 0.01 µmol/kg,0.35 ± 0.03 µmol/kg,–,–,–,–,–,"concentration in kidneys [3, 5]: 5800 nM; HO-1 induction (in words) (HO-1): markedly less potent; NQO1 mRNA induction (in words) (NQO1; liver, compared with CDDO-Im): markedly less potent than CDDO-Im"
